How the values were obtained:
[1] = target: T1, GHSR-1a (Homo sapiens, UniProt Q92847); assay: Calcium FLIPR assay, GHSR-1a antagonism (reduction of ghrelin response); type: cell-based; settings: HEK293/GHSR1a cell line; ghrelin 10 nM; read-out: IC50 FLIPR antagonist Activity
T1 construct: expressed in transfected cells; host or cells: HEK293
Protocol: (§1) The intracellular calcium assay was carried out in a 384-well format FLIPR™ (Molecular Device) HEK293/GHSR1a cell line. Cells were seeded 24 hr prior to the experiments at an optimal density per well. Preincubation with selected calcium dye lasted for 30-60 min at room temperature or 37° C. Test compounds, dissolved in DMSO, were added at the appropriate time and incubated for 15 min followed by the addition of ghrelin with FlexStation or FLIPR. Relative fluorescence was monitored by the FLIPR™ Molecular Device. EC50 and IC50 values were estimated from dose-response data using GraphPad Prism software. To check for GHSR-1a agonism the compound was added at t=20 sec. and the calcium response was followed for 2 minutes. To check for GHSR-1a antagonism the compound and Ghrelin (10 nM) were added to the cells at t=20 sec. and the calcium response was measured for 2 minutes. The potency of the antagonist was calculated by its ability to reduce the ghrelin response. Dose-response curves were made for relevant antagonists.

[2] = system: Male C57BL/6J mice; assay: Evaluation of GHSR1a antagonists on food intake test in mouse; type: in vivo; settings: for Mouse Food Intake effect: NSE: not significant effect
Protocol: Male C57BL/6J mice, 18-22 g body weight, were fasted overnight (16 h before compound administration) and placed in a regular light dark cycle (6:00-18:00 light/18:00-6:00 dark). After 1 wk acclimation, animals were sorted into two groups (n=6 each, 2 per cage) based on body weight. Animals in group one were be treated with vehicle and animals in group 2 were treated with the test agent (n=6 for each group). The cumulative food intake was evaluated at 1, 2, 4, 8 and 24 hrs after drug or vehicle treatment. Food intake was measured by subtracting uneaten food from the initial premeasured food.

[3] = target: T1, GHSR-1a; assay: Calcium FLIPR assay, GHSR-1a agonism; type: cell-based; settings: HEK293/GHSR1a cell line; read-out: EC50 FLIPR against Activity (EC50 part of μM/Emax)
Protocol: as §1

[4] = Mus musculus, ip, 30 mg/kg i.p., at 1 hr
[5] = Mus musculus, ip, 10 mg/kg i.p., at 1 hr

T1 sequence (Q92847 whole entry): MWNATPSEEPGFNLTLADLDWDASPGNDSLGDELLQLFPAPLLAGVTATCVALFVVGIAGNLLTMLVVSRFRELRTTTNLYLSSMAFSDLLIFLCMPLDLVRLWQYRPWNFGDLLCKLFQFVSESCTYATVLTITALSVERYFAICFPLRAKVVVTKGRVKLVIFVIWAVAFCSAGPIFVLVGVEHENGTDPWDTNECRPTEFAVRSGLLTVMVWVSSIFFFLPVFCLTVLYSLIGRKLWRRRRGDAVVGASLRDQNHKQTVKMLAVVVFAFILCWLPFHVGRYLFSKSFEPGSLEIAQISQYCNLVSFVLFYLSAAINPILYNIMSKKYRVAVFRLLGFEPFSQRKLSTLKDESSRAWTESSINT

| Structure (SMILES) | IC50 [1] [nM] | EC50 [3] [µM] | Mouse Food Intake effect ([2]; 10 mg/kg i.p.) | inhibition in vivo at 10 mg/kg [2, 5] [%] | also measured |
| --- | --- | --- | --- | --- | --- |
| C[C@@H](NC(=O)N(C)C1CCN(C)CC1(C)C)c1cccc2ccccc12 (stereo partly drawn) | 21 | 0.009 | – | – | Mouse Food Intake, activity up to ([2]; 30 mg/kg i.p.): ≤ 8 h; inhibition in vivo at 30 mg/kg ([2]; Mus musculus, ip, 30 mg/kg i.p., at 4 h): 47% |
| C[C@@H](NC(=O)N(Cc1ccccc1)C1CCN(C)CC1(C)C)c1cccc2ccccc12 (stereo partly drawn) | 5 | 0.006 | – | – | Mouse Food Intake effect ([2]; 30 mg/kg i.p.): NSE (30 mg/kg) |
| CCN(C(=O)NC(C)c1cccc2ccccc12)C1CCN(C)CC1 (stereo not drawn) | 320 | – | – | – | Mouse Food Intake, activity up to ([2]; 30 mg/kg i.p.): ≤ 24 h; inhibition in vivo at 30 mg/kg [2, 4]: 28% |
| CC(NC(=O)N(C)C1CCN(C)CC1)c1cccc(Cl)c1Cl (stereo not drawn) | 120 | 0.009 | NSE (10 mg/kg) | – | – |
| COc1ccc(C(C)NC(=O)N(C)C2CCN(C)CC2)c2ccccc12 (stereo not drawn) | 40 | 0.03 | NSE | – | Mouse Food Intake, activity up to ([2]; 30 mg/kg i.p.): ≤ 24 h; Mouse Food Intake % increase food intake ([2]; 30 mg/kg i.p., at 1 hr): 70% |
| CN1CCC(N(C)C(=O)NC(CO)c2cccc3ccccc23)CC1 (stereo not drawn) | 910 | 0.49 | – | – | inhibition in vivo at 10 mg/kg ([2]; Mus musculus, ip, 10 mg/kg i.p., 'at to 24 hrs'): 27% |
| CC(NC(=O)N(Cc1ccccc1)C1CCN(C)CC1)c1cccc(Cl)c1Cl (stereo not drawn) | 22 | 16.8 | – | 47 | – |
| CCN(C(=O)NC(CCc1cccc(OCc2cccnc2)c1)c1cccc2ccccc12)C1CCN(C)CC1 (stereo not drawn) | 75 | 18.7 | – | 74 | Mouse Food Intake, activity up to ([2]; 10 mg/kg i.p.): ≤ 24 h |
| COc1ccc(C(CO)NC(=O)N(C)C2CCN(C)CC2)c2ccccc12 (stereo not drawn) | 66 | 0.02 | – | 47 | – |
| CC(NC(=O)N(Cc1cccc(F)c1)C1CCN(C)CC1)c1cccc(Cl)c1Cl (stereo not drawn) | 65 | – | – | 44 | – |
| CC(NC(=O)N(C)C1CCN(C)CC1(C)C)c1cccc(Cl)c1Cl (stereo not drawn) | 12 | – | – | 26 | – |
| CN1CCC(N(C)C(=O)NC(COCc2ccccc2)c2cccc(Cl)c2Cl)CC1 (stereo not drawn) | 70 | – | – | 40 | Mouse Food Intake effect ([2]; 3 mg/kg i.p.): NSE; Mouse Food Intake, activity up to ([2]; 10 mg/kg i.p.): ≤ 4 h; Mouse Food Intake, activity up to ([2]; 30 mg/kg i.p.): ≤ 2 h; inhibition in vivo at 30 mg/kg [2, 4]: 50% |
| CC(NC(=O)N(Cc1ccccc1Cl)C1CCN(C)CC1)c1cccc(Cl)c1Cl (stereo not drawn) | 38 | – | – | 95 | Mouse Food Intake, duration of activity ([2]; 3 mg/kg i.p., after 1 hr): no activity up to follow hrs; Mouse Food Intake, activity up to ([2]; 10 mg/kg i.p.): ≤ 24 h; Mouse Food Intake, activity up to ([2]; 30 mg/kg i.p.): ≤ 24 h; inhibition in vivo at 3 mg/kg ([2]; Mus musculus, ip, 3 mg/kg i.p., at 1 hr): 39%; inhibition in vivo at 30 mg/kg ([2]; Mus musculus, ip, 30 mg/kg i.p., at 2 hr): 70% |
| COc1cccc(CN(C(=O)NC(C)c2cccc(Cl)c2Cl)C2CCN(C)CC2(C)C)c1 (stereo not drawn) | 5 | – | NSE (10 mg/kg) | – | – |
| COc1ccc(C(C)NC(=O)N(C)C2CCN(C)CC2(C)C)c2ccccc12 (stereo not drawn) | 12 | 0.01 | NSE (10 mg/kg) | – | – |
| COc1ccc(C(C)NC(=O)N(C)C2CCN(C)CC2(C)C)c(Cl)c1Cl (stereo not drawn) | 3 | 0.01 | NSE (10 mg/kg) | – | – |
| CC(NC(=O)N(Cc1ccccc1F)C1CCN(C)CC1(C)C)c1cccc(Cl)c1Cl (stereo not drawn) | 7 | – | NSE (10 mg/kg) | – | – |
| COc1cccc(CN(C(=O)N[C@H](C)c2cccc(Cl)c2Cl)C2CCN(C)CC2C)c1 (stereo partly drawn) | 5 | – | NSE (10 mpk) | – | – |
| COc1ccc(C(C)NC(=O)N(OC)C2CCN(C)CC2)c(Cl)c1Cl (stereo not drawn) | 4 | 0.0082 | – | – | – |
| COc1ccc(C(C)NC(=O)N(O)C2CCN(C)CC2)c2ccccc12 (stereo not drawn) | – | 0.0021 | – | – | – |

From patent US8658797B2, “Asymmetric ureas and medical uses thereof” (Helsinn Healthcare SA, priority 2011, dated 2014)
